Our source for the melting point, IC50 and inhibition values is patent US6589970B2, “6-(aryl-amido or aryl-amidomethyl)-naphthalen-2-yloxy-acidic derivatives as inhibitors of plasminogen activator inhibitor type-1 (PAI-1)” (Wyeth, priority 2001, dated 2003).

Data set [1] concerns the target T1, recombinant human plasminogen activator inhibitor-1 (PAI-1) (Homo sapiens, UniProt P05121).
T1 construct: purchased Molecular Innovations, Royal Oak, Mich
The data set can be described thus: Modification of the Primary Screen for the PAI-1 Inhibition (IC50). Format: biochemical. How it is done:
Test compounds are dissolved in DMSO at a final concentration of 10 mM, then diluted 100× in physiologic buffer. The inhibitory assay is initiated by the addition of the test compound (1-100 μM final concentration, maximum DMSO concentration of 0.2%) in a pH 6.6 buffer containing 140 nM recombinant human plasminogen activator inhibitor-1 (PAI-1; Molecular Innovations, Royal Oak, Mich.). Following a 1 hour incubation at room temperature, 70 nM of recombinant human tissue plasminogen activator (tPA) is added, and the combination of the test compound, PAI-1 and tPA is incubated for an additional 30 minutes. Following the second incubation, Spectrozyme-tPA (American Diagnostica, Greenwich, Conn.), a chromogenic substrate for tPA, is added and absorbance read at 405 nm at 0 and 60 minutes. Relative PAI-1 inhibition is equal to the residual tPA activity in the presence of the test compound and PAI-1. Control treatments include the complete inhibition of tPA by PAI-1 at the molar ratio employed (2:1), and the absence of any effect of the test compound on tPA alone.

Data set [2] concerns the target T1, recombinant human plasminogen activator inhibitor-1 (PAI-1). The data set can be described thus: Primary Screen for the PAI-1 Inhibition. The class given is biochemical. Conditions: for inhibition at 25 µM: 25 μM test compound, read-out: % Inhib. 25 μM; for inhibition at 100 µM: 100 μM test compound, read-out: % Inhib. 100 μM. A digest of the protocol:
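Compound (1-100 μM final, ≤0.2% DMSO) was preincubated for 1 h at room temperature with 140 nM recombinant human PAI-1 at pH 6.6. tPA was then added at 70 nM for 30 min. Residual tPA activity was measured with Spectrozyme-tPA (A405 at 0 and 60 min) and taken as relative PAI-1 inhibition.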

For another data set, the target named is human PAI-1 (Homo sapiens, UniProt P05121). The data set can be described thus: Assay for Determining IC50 of Inhibition of PAI-1 (Antibody Assay). Format: biochemical. To be noted: active PAI-1 bound to tPA-coated plate. How it is done:
This assay is based upon the non-SDS dissociable interaction between tPA and active PAI-1. Assay plates are initially coated with human tPA (10 μg/ml). The test compounds are dissolved in DMSO at 10 mM, then diluted with physiologic buffer (pH 7.5) to a final concentration of 1-50 μM. The test compounds are incubated with human PAI-1 (50 ng/ml) for 15 minutes at room temperature. The tPA-coated plate is washed with a solution of 0.05% Tween 20 and 0.1% BSA, then the plate is blocked with a solution of 3% BSA. An aliquot of the test compound/PAI-1 solution is then added to the tPA-coated plate, incubated at room temperature for 1 hour, and washed. Active PAI-1 bound to the plate is assessed by adding an aliquot of a 1:1000 dilution of the 33B8 monoclonal antibody against human PAI-1, and incubating the plate at room temperature for 1 hour (Molecular Innovations, Royal Oak, Mich. The plate is again washed, and a solution of goat anti-mouse IgG-alkaline phosphatase conjugate is added at a 1:50,000 dilution in goat serum. The plate is incubated 30 minutes at room temperature, washed, and a solution of alkaline phosphatase substrate is added. The plate is incubated 45 minutes at room temperature, and color development is determined at OD405nm. The quantitation of active PAI-1 bound to tPA at varying concentrations of the test compound is used to determine the IC50. Results are analyzed using a logarithmic best-fit equation. The assay sensitivity is 5 ng/ml of human PAI-1 as determined from a standard curve ranging from 0-100 ng/ml.

Structures can show the parent of a compound that is named as a salt.

T1 sequence (P05121 24-402): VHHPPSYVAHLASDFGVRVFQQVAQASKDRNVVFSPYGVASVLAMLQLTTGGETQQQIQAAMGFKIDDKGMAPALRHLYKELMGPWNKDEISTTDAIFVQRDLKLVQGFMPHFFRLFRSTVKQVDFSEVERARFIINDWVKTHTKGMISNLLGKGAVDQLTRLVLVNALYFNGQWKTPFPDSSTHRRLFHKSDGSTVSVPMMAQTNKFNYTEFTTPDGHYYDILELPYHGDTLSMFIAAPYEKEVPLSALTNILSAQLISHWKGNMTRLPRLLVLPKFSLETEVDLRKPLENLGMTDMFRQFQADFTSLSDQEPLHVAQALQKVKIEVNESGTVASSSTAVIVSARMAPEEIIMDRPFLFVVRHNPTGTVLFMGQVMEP
human PAI-1, sequence (P05121 24-402): as above

A word on the melting point: it is the temperature of the solid-liquid transition. As a reminder, the IC50 is the concentration needed to halve the response being measured. `CCCCc1oc2ccccc2c1C(=O)NCc1ccc2c(-c3ccc(Cl)cc3)c(OCc3nnn[nH]3)ccc2c1` [Example 26, 2-Butyl-benzofuran-3-carboxylic acid [5-(4-chloro-phenyl)-6-(1-tetrazol-5-ylmethoxy)-naphthalen-2-ylmethyl]-amide]: the melting point is 208 to 211 °C. For the same compound, the IC50 in data set [1] came out at 4.3 µM. In addition, in data set [2], the inhibition at 25 µM was 20% and the inhibition at 100 µM was 98%.
For the compound `CC(C)(C)c1cc(C(=O)NCc2ccc3c(Br)c(OC(Cc4ccccc4)C(=O)O)ccc3c2)cc(C(C)(C)C)c1` (stereo not shown) [Example 56, 2-{1-Bromo-6-[(3,5-di-tert-butyl-benzoylamino)-methyl]-naphthalen-2-yloxy}-3-phenyl-propionic acid], the melting point was 160 to 163 °C. In data set [1], the IC50 amounted to 1.9 µM. In addition, in data set [2], the inhibition at 25 µM worked out at 84% and the inhibition at 100 µM was 100%.
With `O=C(NCc1ccc2c(Br)c(OC(Cc3ccccc3)C(=O)O)ccc2c1)c1ccc(C2CCCCC2)cc1` (stereo not shown) [Example 55], on human PAI-1, the IC50 turned out to be 16.8 µM. For the same compound, the IC50 in data set [1] stood at 11.8 µM. In data set [2], the inhibition at 25 µM amounted to 35% and the inhibition at 100 µM came to 60%.
The matching figures for `CCCCc1oc2ccccc2c1C(=O)Nc1ccc2c(Br)c(OC(Cc3ccccc3)C(=O)O)ccc2c1` (stereo not shown) [Example 7, 2-{1-Bromo-6-[(2-butyl-benzofuran-3-carbonyl)-amino]-naphthalen-2-yloxy}-3-phenyl-propionic acid]: 16.6 µM, 7.8 µM, 64% and 83%.
For the compound `CCCCc1oc2ccccc2c1C(=O)Nc1ccc2c(Br)c(OCC(=O)O)ccc2c1` [Example 6, {1-Bromo-6-[(2-butyl-benzofuran-3-carbonyl)-amino]-naphthalen-2-yloxy}-acetic acid sodium salt], the concentration for half-maximal inhibition (IC50) in data set [1] worked out at 18.3 µM. Besides, in data set [2], the inhibition at 25 µM amounted to 43% and the inhibition at 100 µM was 67%.
The matching figures for `CCCCc1oc2ccccc2c1C(=O)NCc1ccc2c(-c3ccc(OC)cc3)c(OCc3nnn[nH]3)ccc2c1` [Example 25, 2-Butyl-benzofuran-3-carboxylic [5-(4-methoxy phenyl)-6-(1H-tetrazol-5-ylmethoxy)-naphthalen-2-ylmethyl]-amide, sodium salt]: 4.6 µM, 3% and 94%.
Turning to `CCCCc1oc2ccccc2c1C(=O)NCc1ccc2c(-c3ccc(Cl)cc3)c(OC(Cc3ccccc3)C(=O)O)ccc2c1` (stereo not shown) [Example 29, 2-[6-{[(2-Butyl-benzofuran-3-carbonyl)-amino]-methyl}-1-(4-chloro-phenyl)-naphthalen-2-yloxy]-3-phenyl-propionic acid], in data set [1], the IC50 was 8.5 µM. Further, in data set [2], the inhibition at 25 µM worked out at 23% and the inhibition at 100 µM came to 100%.
The matching figures for `CCCCc1oc2ccccc2c1C(=O)NCc1ccc2cc(OCc3nnn[nH]3)ccc2c1` [Example 8, 2-Butyl-benzofuran-3-carboxylic acid [6-(1H-tetrazol-5-ylmethoxy)-naphthalen-2-ylmethyl]-amide sodium salt]: 22.9 µM, 13% and 71%.
The matching figures for `Cc1oc(-c2ccc(Cl)cc2)cc1C(=O)NCc1ccc2cc(OCC(=O)O)ccc2c1` [Example 10, [6-({[5-(4-Chloro-phenyl)-2-methyl-furan-3-carbonyl]-amino}-methyl)-naphthalen-2-yloxy]-acetic acid]: 25.2 µM, 7% and 53%.
Compound `CCCCc1oc2ccccc2c1C(=O)N(Cc1ccccc1)Cc1ccc2c(Br)c(OCc3nnn[nH]3)ccc2c1` [Example 48, 2-Butyl-benzofuran-3-carboxylic acid benzyl-[5-bromo-6-(1H-tetrazol-5-ylmethoxy)-naphthalen-2-ylmethyl]-amide] registered a 50% inhibitory concentration (IC50) at human PAI-1 of 17.5 µM. In data set [1], the IC50 was 20.9 µM. Moreover, in data set [2], the inhibition at 25 µM came out at 48% and the inhibition at 100 µM stood at 85%.
Take `CCCc1c(C(=O)NCc2ccc3c(Br)c(OC(Cc4ccccc4)C(=O)O)ccc3c2)cnn1-c1ccccc1` (stereo not shown) [Example 54, 2-(1-Bromo-6-{[(1-phenyl-5-propyl-1H-pyrazole-4-carbonyl)-amino]-methyl}-naphthalen-2-yloxy)-3-phenyl-propionic acid]: the IC50 in data set [1] was determined as 11.8 µM. For the same compound, in data set [2], the inhibition at 25 µM was found to be 18% and the inhibition at 100 µM is 80%.
Compound `CN(Cc1ccc2c(Br)c(OCc3nnn[nH]3)ccc2c1)C(=O)c1cn(C)c2ccccc12` [Example 37, 1-Methyl-1H-indole-3-carboxylic acid [5-bromo-6-(1H-tetrazol-5-ylmethoxy)-naphthalen-2-ylmethyl]-methyl-amide] showed a melting point of 227 to 228 °C. Besides, the IC50 on human PAI-1 is 20.6 µM. Besides, in data set [2], the inhibition at 25 µM amounted to 52% and the inhibition at 100 µM turned out to be 96%.
Consider `O=C(O)COc1ccc2cc(CNC(=O)c3cc(-c4ccccc4Cl)oc3C(F)(F)F)ccc2c1` [Example 81, [6-({[5-(2-Chloro-phenyl)-2-trifluoromethyl-furan-3-carbonyl]-amino}-methyl)-naphthalen-2-yloxy]-acetic acid], for which, in data set [1], the IC50 worked out at 36.5 µM. Besides, in data set [2], the inhibition at 25 µM was 12% and the inhibition at 100 µM was determined as 78%.
In turn, `CCc1oc2ccccc2c1C(=O)NCc1ccc2c(Br)c(OCc3nnn[nH]3)ccc2c1` [Example 21, 2-Ethyl-benzofuran-3-carboxylic acid [5-bromo-6-(1H-tetrazol-5-yl methoxy)-naphthalen-2-ylmethyl]-amide] returned a melting point of 235 to 238 °C. On human PAI-1, this compound came in with an IC50 of 5.08 µM. Moreover, in data set [2], the inhibition at 25 µM worked out at 36% and the inhibition at 100 µM is 54%.
With `O=C(NCc1ccc2c(Br)c(OC(Cc3ccccc3)C(=O)O)ccc2c1)c1cccc(Oc2ccccc2)c1` (stereo not shown) [Example 57, 2-{1-Bromo-6-[(3-phenoxy-benzoylamino)-methyl]-naphthalen-2-yloxy}-3-phenyl-propionic acid], in data set [1], the IC50 amounted to 5.5 µM. Moreover, in data set [2], the inhibition at 25 µM stood at 24% and the inhibition at 100 µM is 98%.
For `CCCCc1oc2ccccc2c1C(=O)Nc1ccc2cc(OCc3nn[nH]n3)ccc2c1` [Example 3, 2-Butyl-benzofuran-3-carboxylic acid [6-(2H-tetrazol-5-ylmethoxy)-naphthalen-2-yl]-amide], the melting point was 194 to 198 °C. The IC50 in data set [1] was 3.2 µM. Further, in data set [2], the inhibition at 25 µM stood at 38% and the inhibition at 100 µM is 75%.
On to `CCCCc1oc2ccccc2c1C(=O)N(CCCC)Cc1ccc2c(Br)c(OCc3nnn[nH]3)ccc2c1` [Example 51, 2-Butyl-benzofuran-3-carboxylic acid [5-bromo-6-(1H-tetrazol-5-ylmethoxy)-naphthalen-2-ylmethyl]-butyl-amide], for which the results for the IC50 (against human PAI-1; in data set [1]) were 18.7 µM and 6.9 µM, respectively. For the same compound, the inhibition at 25 µM in data set [2] was 69%. Besides, in data set [2], the inhibition at 100 µM came out at 91%.
On to `CCCCc1oc2ccccc2c1C(=O)NCc1ccc2c(-c3ccccc3)c(OCC(=O)O)ccc2c1` [Example 28, (6-{[(2-Butyl-benzofuran-3-carbonyl)-amino]-methyl}-1-phenyl-naphthanen-2-yloxy)-acetic acid], for which the melting point lay within 180 to 183 °C. For the same compound, the concentration for half-maximal inhibition (IC50) in data set [1] worked out at 20.2 µM. Further, in data set [2], the inhibition at 25 µM worked out at 22% and the inhibition at 100 µM amounted to 100%.
